Read-outs that look alike come from different tables or passages of the source. Strand notation (5' to 3'): a small letter for the sugar, then the base; units joined by * are phosphorothioate-linked, units joined directly phosphodiester-linked; [ ] holds rarer units or linkages, { } end groups; capitals alone tell only the bases. e = 2'-O-(2-methoxyethyl) (MOE); [5mC] = 5-methylcytosine
Key:
cancer = conditions: literature; cited from earlier work
hnRNP L [1] = assay: hnRNP L expression in human differentiated myoblasts after ASC treatment; format: cell-based
From the text: (§1) Such function of ASC was also found in human osteosarcoma cells (about 10-fold) and multiple disease models, see PCT publication no. WO/2019/236750, which is incorporated by reference herein in its entirety.

hnRNP L [2] = assay: Western blot of hnRNP L protein in rat primary cortical neurons after ASC treatment; format: cell-based; conditions: 10^−7 M or 10^−6 M ASC, FIG. 14
Experimental: (§2) FIG. 14 is a gel image showing a comparison of hnRNP L protein levels in rat primary cortical neurons with or without ASC treatments at different doses. The rat neurons were treated with 10^−7 M or 10^−6 M ASC, or not treated as control (“Cont.”), and then lysed for western blot detection of protein expression levels of hnRNP L (the upper panel). The arrow points to hnRNP L protein bands (appears as a triplet). […] FIG. 14B is a gel image showing elevation of hnRNP L levels after ASC treatment in SH-SY5Y human neuroblastoma cells (CLT results).
as §1

hnRNP L [3] = conditions: cited from earlier work; for increase in the levels of hnRNP L: human osteosarcoma cells (U2OS)
[4] = cited from earlier work; for toxicity (shown to be non-toxic): in vivo; for toxicity (LD50): IP or oral administration, U.S. Pat. No. 3,995,061, FIGS. 15A and 15B
hnRNP L [5] = assay: hnRNP L levels after ASC treatment in SH-SY5Y human neuroblastoma cells; format: cell-based; conditions: FIG. 14B
Experimental: as §2

HNRNPL = conditions: Gene HNRNPL; cited from earlier work
[6] = tested on: glucose transporter 1 (GLUT-1); conditions: Jeong J. H. et al. 2011; cited from earlier work
[7] = tested on: vascular endothelial growth factor (VEGF); conditions: Jeong J. H. et al. 2011; cited from earlier work
[8] = rat, in vivo, po; cited from earlier work
[9] = U.S. Pat. No. 3,995,061, cited from earlier work; for toxicity: administered orally to human
[10] = mouse, in vivo, po; cited from earlier work
TDP-43 aggregation = conditions: iPS cell derived motor neurons, sporadic ALS; Burkhardt et al. 2013; cited from earlier work
hsHNRNP L mRNA = assay: Time-course experiment, ASOs at 30 nM, hnRNP L mRNA by bDNA in BE(2)-M17 cells; format: cell-based, Homo sapiens; conditions: 30 nM ASO, mock controls set to 100%, incubations 24 h, 48 h, 72 h, time point not given
Experimental: Lipofectamine3000 (LF3000) was again used as the transfection agent. The transfection mixture was prepared identically on three plates. […] In this case, no outliers were removed. Data were generated in biological quadruplicates.
FIG. 26 includes a comparison of results from this study next to results from Example 7. Observing the results after 24 h incubation, similar data from the analysis in Example 7 were reproduced here.

[11] = tested on: human hnRNP L (hsHNRNP L) mRNA; assay: 5-point dose response (DRC) of ASOs, hnRNP L mRNA by branched DNA assay in BE(2)-M17 cells; format: cell-based; conditions: 24 h; for max. upregulation [%] (MV normalized hsHNRNP L/hsGAPDH): Lipofectamine3000, highest 120 nM, four 4-fold dilutions, bDNA, negative controls set to 100%; for EC50: hsHNRNP L mRNA upregulation, XLfit
From the text: Data were generated in biological quadruplicates. […] No significant decrease in hsGAPDH mRNA levels was observed.
Details and data are shown in Table 9A-9B, FIG. 24, and FIG. 25A-25E. In some cases, there was dose dependent hsHNRNP L on-target mRNA upregulation to varying degrees when cells were transfected with ASO compounds of interest.

C=C1CC[C@H](O)C(C)(C)[C@@H]1CC/C(C)=C/Cc1c(O)c(Cl)c(C)c(C=O)c1O [acremochlorin A, reference compound]
antitumorigenic / anti-cancer properties (cancer): anti-cancer properties

ascochlorin
increase of hnRNP L expression levels (hnRNP L [1]): about 6 fold | hnRNP L expression levels (hnRNP L [2]): increased | increase of hnRNP L levels (hnRNP L [3]; Kang J. H. et al. J Proteome Res. 2006): ~12 × | increase in the levels of hnRNP L (hnRNP L [3]): ≥ 10 fold | increase in the levels of hnRNP L (hnRNP L [3]; listed as ASC): about 10 fold | toxicity (shown to be non-toxic) [4]: non-toxic | hnRNP L levels (hnRNP L [5]): elevation | antitumorigenic / anti-cancer properties (cancer): antitumorigenic properties

CCc1c2c(nc3ccc(OC(=O)N4CCC(N5CCCCC5)CC4)cc13)-c1cc3c(c(=O)n1C2)COC(=O)[C@]3(O)CC [irinotecan]
Source (DSigDB signature, association with increased hnRNP L levels) (HNRNPL): D3(UP)

CN(C)C(=O)Oc1cccc([N+](C)(C)C)c1 [neostigmine bromide]
Source (DSigDB signature, association with increased hnRNP L levels) (HNRNPL): D3(UP)

COc1c(Cl)c(C)c(C=O)c(O)c1C/C=C(C)/C=C/[C@@]1(C)[C@H](C)CCC(=O)[C@@H]1C [MAC, 4-O-methylascochlorin]
expression of GLUT-1 [6]: increases | expression of VEGF [7]: increases | toxicity [8]: low toxicity | tolerability in clinical trials [9]: well tolerated | toxicity [9]: low toxicity | toxicity [10]: low toxicity | toxicity (LD50) [4]: low toxicity | antitumorigenic / anti-cancer properties (cancer): antitumorigenic properties

C[C@@H]1O[C@@H](O[C@@H]2C=C3CC[C@@H]4[C@H](CC[C@]5(C)[C@@H](c6ccc(=O)oc6)CC[C@]45O)[C@@]3(C)CC2)[C@H](O)[C@H](O)[C@H]1O [proscillaridin]
Source (DSigDB signature, association with increased hnRNP L levels) (HNRNPL): D3(UP) | hit in screen for compounds reducing TDP-43 aggregation (TDP-43 aggregation): hits confirmed in dose response assays

CCOc1c(Cl)c(C)c(C=O)c(O)c1C/C=C(C)/C=C/C1(C)C(C)CCC(=O)C1C (centres unmarked) [4-O-ethyl-ascochlorin]
toxicity [9]: low toxicity | toxicity (LD50) [4]: low toxicity

Skip-6A-12: ASO TGAAAGATGGCGTCCCATCAAA (SEQ ID NO: 61), fully 2′-MOE, 5′-methyl C, phosphorothioate; exon 6A (antisense eT*eG*eA*eA*eA*eG*eA*eT*eG*eG*e[5mC]*eG*eT*e[5mC]*e[5mC]*e[5mC]*eA*eT*e[5mC]*eA*eA*eA; listed as Homo sapiens)
MV normalized hsHNRNP L/hsGAPDH (hsHNRNP L mRNA): 14.5% | max. upregulation [%] (MV normalized hsHNRNP L/hsGAPDH) [11]: 36.6% | EC50 [11]: 16.7 nM

C/C(=C\Cc1c(O)c(Cl)c(C)c(C=O)c1O)CC/C=C(\C)[C@@H]1CC(=O)C(C)(C)O1 [ascofuranone]
toxicity (shown to be non-toxic) [4]: non-toxic | antitumorigenic / anti-cancer properties (cancer): antitumorigenic properties

Skip-6A-15: ASO AGTGAGTTAGCACAGTTCTGAA (SEQ ID NO: 64), fully 2′-MOE, 5′-methyl C, phosphorothioate; exon 6A (antisense eA*eG*eT*eG*eA*eG*eT*eT*eA*eG*e[5mC]*eA*e[5mC]*eA*eG*eT*eT*e[5mC]*eT*eG*eA*eA; listed as Homo sapiens)
MV normalized hsHNRNP L/hsGAPDH (hsHNRNP L mRNA): 63.4% | max. upregulation [%] (MV normalized hsHNRNP L/hsGAPDH) [11]: 55.8% | EC50 [11]: 7.45 nM

C[C@H]1O[C@@H](O[C@H]2[C@@H](O)C[C@H](O[C@H]3[C@@H](O)C[C@H](O[C@H]4CC[C@@]5(C)[C@H](CC[C@@H]6[C@@H]5C[C@@H](O)[C@]5(C)[C@@H](C7=CC(=O)OC7)CC[C@]65O)C4)O[C@@H]3C)O[C@@H]2C)C[C@H](O)[C@@H]1O [digoxin]
Source (DSigDB signature, association with increased hnRNP L levels) (HNRNPL): D3(UP) | hit in screen for compounds reducing TDP-43 aggregation (TDP-43 aggregation): hits confirmed in dose response assays

Skip-6A-8: ASO ATACACTGCGACCCTGCATCAC (SEQ ID NO: 57), fully 2′-MOE, 5′-methyl C, phosphorothioate; upstream intron/exon (antisense eA*eT*eA*e[5mC]*eA*e[5mC]*eT*eG*e[5mC]*eG*eA*e[5mC]*e[5mC]*e[5mC]*eT*eG*e[5mC]*eA*eT*e[5mC]*eA*e[5mC]; listed as Homo sapiens)
MV normalized hsHNRNP L/hsGAPDH (hsHNRNP L mRNA): 26.0% | max. upregulation [%] (MV normalized hsHNRNP L/hsGAPDH) [11]: 18.0% | EC50 [11]: 8.54 nM

Skip-6A-17: ASO TGGACGCTTCAACAGTGAGTTA (SEQ ID NO: 66), fully 2′-MOE, 5′-methyl C, phosphorothioate; exon 6A (antisense eT*eG*eG*eA*e[5mC]*eG*e[5mC]*eT*eT*e[5mC]*eA*eA*e[5mC]*eA*eG*eT*eG*eA*eG*eT*eT*eA; listed as Homo sapiens)
MV normalized hsHNRNP L/hsGAPDH (hsHNRNP L mRNA): 64.5% | max. upregulation [%] (MV normalized hsHNRNP L/hsGAPDH) [11]: 46.9% | EC50 [11]: 10.6 nM

Skip-6A-6: ASO TGCATCACATGGTTTTACAGTC (SEQ ID NO: 55), fully 2′-MOE, 5′-methyl C, phosphorothioate; upstream intron (antisense eT*eG*e[5mC]*eA*eT*e[5mC]*eA*e[5mC]*eA*eT*eG*eG*eT*eT*eT*eT*eA*e[5mC]*eA*eG*eT*e[5mC]; listed as Homo sapiens)
MV normalized hsHNRNP L/hsGAPDH (hsHNRNP L mRNA): 81.7% | max. upregulation [%] (MV normalized hsHNRNP L/hsGAPDH) [11]: 65.1% | EC50 [11]: 6.23 nM

Skip-6A-2: ASO AGTCACGGTACACATCCGCTAC (SEQ ID NO: 51), fully 2′-MOE, 5′-methyl C, phosphorothioate; upstream intron (antisense eA*eG*eT*e[5mC]*eA*e[5mC]*eG*eG*eT*eA*e[5mC]*eA*e[5mC]*eA*eT*e[5mC]*e[5mC]*eG*e[5mC]*eT*eA*e[5mC]; listed as Homo sapiens)
MV normalized hsHNRNP L/hsGAPDH (hsHNRNP L mRNA): 1.8% | max. upregulation [%] (MV normalized hsHNRNP L/hsGAPDH) [11]: 7.2% | EC50 [11]: 18.5 nM

Skip-6A-10: ASO GTCCCATCAAACATACACTGCG (SEQ ID NO: 59), fully 2′-MOE, 5′-methyl C, phosphorothioate; exon 6A (antisense eG*eT*e[5mC]*e[5mC]*e[5mC]*eA*eT*e[5mC]*eA*eA*eA*e[5mC]*eA*eT*eA*e[5mC]*eA*e[5mC]*eT*eG*e[5mC]*eG; listed as Homo sapiens)
MV normalized hsHNRNP L/hsGAPDH (hsHNRNP L mRNA): 42.1% | max. upregulation [%] (MV normalized hsHNRNP L/hsGAPDH) [11]: 49.2% | EC50 [11]: 5.79 nM

C[C@H](CS)C(=O)N1CCC[C@H]1C(=O)O [captopril]
Source (DSigDB signature, association with increased hnRNP L levels) (HNRNPL): D3(UP)

CC(C=CC1(C)C(C)CCC(=O)C1C)=CCc1c(O)c(Br)c(C)c(C=O)c1O (centres unmarked) [3-bromoascochlorin, reference compound]
antitumorigenic / anti-cancer properties (cancer): anti-cancer properties

From patent US20250290074A1, “TARGETED TREATMENT OF SPLICEOPATHY-INDUCED NEUROLOGICAL DISORDERS” (Auttx, LLC, priority 2022, published 2025)
